Assay results as given in PubChem BioAssay (NCI).
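All cell lines were grown in 96-well plates and treated with compound for 48 hours. The concentration for full growth arrest is given as TGI.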

What was measured:
Assay in all cases: NCI tumour cell line growth inhibition, 48 h
[1] = tested on: 786-0 renal
[2] = tested on: CCRF-CEM leukemia
[3] = tested on: COLO 205 colon
[4] = tested on: HOP-62 NSCLC
[5] = tested on: IGROV1 ovarian
[6] = tested on: LOX IMVI melanoma
[7] = tested on: MALME-3M melanoma
[8] = tested on: MDA-MB-435
[9] = tested on: MOLT-4 leukemia
[10] = tested on: NCI-H23 lung
[11] = tested on: NCI-H460 lung
[12] = tested on: NCI-H522 lung
[13] = tested on: OVCAR-3 ovarian
[14] = tested on: RPMI-8226 leukemia
[15] = tested on: RXF 393 renal
[16] = tested on: SF-295 CNS
[17] = tested on: SW-620 colon
[18] = tested on: T-47D breast
[19] = tested on: MDA-N

Row | Structure (SMILES) | TGI [1] | TGI [2] | TGI [3] | TGI [4] | TGI [5] | TGI [6] | TGI [7] | TGI [8] | TGI [9] | TGI [10] | TGI [11] | TGI [12] | TGI [13] | TGI [14] | TGI [15] | TGI [16] | TGI [17] | TGI [18] | TGI [19]
1 | CCOC(=O)/C1=C(\C)N(c2ccc(C)cc2)C(=O)c2ccccc2C(=O)c2c(OC(C)=O)ccc(OC(C)=O)c21 | > 100 µM | 26.2 µM | 26.3 µM | 87.3 µM | 36.6 µM | 41.7 µM | 72.6 µM | 41.5 µM | 21.4 µM | 71.1 µM | 47.8 µM | 74.1 µM | 39.3 µM | 30.3 µM | 92.9 µM | 43.2 µM | > 100 µM | 76.5 µM | 
2 | COc1cc(C2SCC(=O)N2c2ccc(-c3ccc(-n4c(-c5ccccc5)nc5ccccc5c4=O)cc3)cc2)cc(OC)c1OC (stereo not drawn) | 47.6 µM | > 100 µM | > 100 µM | 85.5 µM | > 100 µM |  | > 100 µM | > 100 µM | > 100 µM | > 100 µM | > 100 µM | 62.3 µM | 80.9 µM | > 100 µM |  |  | > 100 µM | > 100 µM | 
3 | CCCC(C)NC1=C(NC(C)=O)C(=O)c2ccccc2C1=O (stereo not drawn) | > 100 µM | > 100 µM | > 100 µM | > 100 µM | > 100 µM | > 100 µM | > 100 µM |  | > 100 µM | > 100 µM | > 100 µM | > 100 µM | > 100 µM |  | > 100 µM | > 100 µM | > 100 µM |  | 
4 | Nn1c(CCCCCCCCc2nnc(COc3ccc(Cl)cc3)n2N)nnc1COc1ccc(Cl)cc1 | > 100 µM |  | > 100 µM |  | > 100 µM |  | > 100 µM | > 100 µM | > 100 µM | > 100 µM | > 100 µM | > 100 µM |  | > 100 µM | > 100 µM | > 100 µM | > 100 µM |  | 
5 | O=C1c2ccccc2CCCCCCCCCCC12OCCCO2 | > 100 µM | 83.3 µM | 38.1 µM | > 100 µM | > 100 µM | 84.8 µM | 77.8 µM |  | 43.8 µM | > 100 µM | > 100 µM | 67.2 µM | > 100 µM | 40 µM | 33.7 µM | > 100 µM |  |  | 
6 | CN1NC(=Nc2ccccc2)Sc2c1cnn(-c1ccccc1)c2=O | > 100 µM | > 100 µM | > 100 µM | > 100 µM | > 100 µM | > 100 µM | > 100 µM |  | > 100 µM | > 100 µM | > 100 µM |  | 90.6 µM | > 100 µM | > 100 µM | > 100 µM | > 100 µM |  | 
7 | Oc1cc(C2OCCCO2)cc(O)c1O | > 100 µM | > 100 µM | > 100 µM | > 100 µM | > 100 µM |  | > 100 µM |  | > 100 µM | > 100 µM | > 100 µM | > 100 µM | > 100 µM | > 100 µM |  | > 100 µM | > 100 µM |  | 
8 | NC1=NS(=O)(=O)Nc2nc(-c3ccc([N+](=O)[O-])o3)[nH]c21 | 29 µM | 16.9 µM |  | 32.4 µM | 31.5 µM | 29.4 µM | 30.6 µM |  | 41 µM | 39.4 µM | 44 µM | 33.4 µM | 52.8 µM | 46.7 µM | 25.5 µM | 29.8 µM | 35.4 µM |  | 
9 | CN(C)Cc1cc(C(=O)/C=C/c2ccccc2Cl)cc(CN(C)C)c1O | 21.4 µM | 8.82 µM | 18.5 µM | 26.2 µM | 28 µM | 13.5 µM | 23.5 µM | 26.3 µM | 59.8 µM | 35 µM | 18.5 µM | 18 µM | 30.5 µM | 56.5 µM | 41.7 µM | 28.3 µM | 17 µM |  | 34.1 µM
10 | Cc1ccc(/C(O)=C/C(=O)C(=O)/C=C(\O)c2ccc(C)cc2C)c(C)c1 | 4.28 µM | 3.17 µM | 3.66 µM | 3.24 µM | 4.42 µM | 5.96 µM | 3.45 µM | 3.99 µM | 4.67 µM | 3.5 µM | 3.47 µM | 4.53 µM | 3.51 µM | 4.59 µM | 4.22 µM | 3.38 µM | 6.88 µM | 4.46 µM | 
11 | COc1cc2cccc(N=Cc3cccc(OC)c3OC(C)C)c2cc1OC | 37.8 µM | > 100 µM | > 100 µM | 80.3 µM | 70.2 µM |  | 59.8 µM |  | 69.5 µM | 57.2 µM | > 100 µM | 39.7 µM | 41 µM | 37.7 µM |  | 41.2 µM | 48.8 µM |  | 
12 | CC1=COC(C)(C=C(C#N)C#N)CC1 (stereo not drawn) | > 100 µM | > 100 µM | > 100 µM | > 100 µM | > 100 µM |  | > 100 µM | > 100 µM | > 100 µM | > 100 µM | > 100 µM |  |  | > 100 µM | > 100 µM | > 100 µM | > 100 µM | > 100 µM | 
13 | O=C1c2ccc3c4ccccc4n(Cc4ccccc4)c3c2C(=O)N1c1ccccc1 | 26.7 µM | 3.68 µM | 11.1 µM | > 57.6 µM | 35.7 µM | 31.4 µM | 29.9 µM |  | 9.54 µM | 17.6 µM | > 100 µM | 6.93 µM | 11.9 µM | 40.1 µM | 26.7 µM | 28.3 µM | 20.1 µM |  | 
14 | c1cc2nnnn2nc1N1CCCC1 | > 100 µM | > 100 µM | > 100 µM |  |  | > 100 µM |  | > 100 µM | > 100 µM | > 100 µM | > 100 µM |  |  | > 100 µM | > 100 µM | > 100 µM | > 100 µM |  | > 100 µM
15 | COc1ccc(O)cc1 | > 100 µM | > 100 µM | > 100 µM | > 100 µM | > 100 µM | > 100 µM | > 100 µM |  | > 100 µM | > 100 µM | > 100 µM |  | > 100 µM | > 100 µM | > 100 µM |  | > 100 µM |  | 
